Read-outs that look alike come from different tables or passages of the source.
How the values were obtained:
[1] = molecular target: PRC2 containing wt EZH2 (Homo sapiens (Human), UniProt Q15910); assay: EZH2 biochemical assay (IC50), 3H-SAM incorporation into biotinylated H3 peptide
Experimental: EZH2 biochemical assay (IC50): Compound potencies were assessed through incorporation of ^3H-SAM into a biotinylated H3 peptide. Specifically, 30 pM PRC2 containing wt EZH2 (pentameric complex prepared in-house) was pre-incubated with 450 nM SAM, 450 nM ^3H-SAM, 2 μM H3K27me3 activating peptide (H2N-[…](Kme3)[…]-amide) and compounds (as 10 point duplicate dose response titrations in DMSO, final assay 0.8% DMSO (v/v)) for 3-5 h in 50 mM Tris (pH 8.5), 1 mM DTT, 0.07 mM Brij-35, 0.1% BSA, and 0.8% DMSO in a total volume of 12.5 μl. Reaction was initiated with biotinylated H3 substrate peptide (H2N-[…](Kme1)[…]-NTPEGBiot) as a 2 μM stock in 12.5 μl of buffer and allowed to react at room temperature for 18-22 h. Quenching was accomplished by addition of 20 μl of STOP solution (50 mM Tris (pH 8.5), 200 mM EDTA, 2 mM SAH). 35 μl of the quenched solution was transferred to streptavidin coated FlashPlates (PerkinElmer), incubated 1-2 h, washed, and read in a TopCount Reader (PerkinElmer). IC50s were calculated in Genedata Screener using non-linear least square four parameter fits, where the four parameters were IC50, Hill slope, pre-transitional baseline (0% INH), and post-transitional baseline (100% INH).
IC50 values are reported as follows: “A” indicates an IC50 value of less than 0.5 nM; “B” indicates an IC50 value of 0.5 nM to 5 nM; “C” indicates an IC50 value of greater than 5 nM for each enzyme; and “ND” is not determined.

[2] = system: H3K27me3 mark in HeLa cells (EZH2); assay: H3K27me3 Alpha Hela Assay (AlphaLISA); type: cell-based; details: HeLa cells, 72 hrs, read-out: EZH2 Cell H3K27me3 Alpha HeLa (EC50 K27me3)
Experimental: H3K27me3 Alpha Hela Assay (AlphaLISA). Ten different doses of each test compound (in a series of 3-fold dilutions) were plated in duplicate 384-well tissue culture treated plates (Catalog #6007680; Perkin Elmer, Waltham, Mass.). Hela cells grown in culture were trypsinized and counted using a Countess® cell counter (Catalog #C10281; Life Technologies, Grand Island, N.Y.). Cell were diluted to 67,000 cells per mL in 10% DMEM (Catalog #10569-010 Life Technologies, Grand Island, N.Y.) and 15 μL (1,000 cells) were plated into each well using the Biotek MicroFlo™ Select Dispenser (BioTek Instruments, Inc. Vermont, USA),) of the 384-well plate. Plates were incubated at 37° C./5% CO2 for 72 hrs. One of the duplicate plates was processed for HeLa assay and the other for viability.
5 μL of Cell-Histone Lysis buffer (1×) (Catalog #AL009F1 Perkin Elmer; Waltham, Mass.) per well was added to the plate processed for AlphaLISA and the plate was incubated at RT for 30 minutes on a plate shaker with low speed (Model #4625-Q Thermo Scientific; Waltham, Mass.). Then, 10 μL per well Histone Extraction buffer (catalog #AL009F2; Perkin Elmer; Waltham, Mass.) was added and the plate further incubated at RT for 20 min on plate shaker with low speed. Next, 10 μL of 5× mix of anti-K27me3 acceptor beads plus Biotinylated anti-Histone H3 (C-ter) Antibody (diluted to 3 nM final) (Catalog #AL118 Perkin Elmer; Waltham, Mass.) was added in each well. Dilution of the acceptor beads and anti-Histone H3 was done in 1× Histone Detection buffer (Catalog #AL009F3 Perkin Elmer; Waltham, Mass.) which was produced by diluting the 10× stock provided. The plate was sealed with an aluminum plate sealer and incubated at 23° C. for 60 min. Next, 10 μL 5× solution of Streptavidin Donor beads were added (Catalog #6760002 Perkin Elmer; Waltham, Mass.) (20 μg/mL final in 1× Histone Detection Buffer), =plate was sealed with Aluminum plate sealer and incubated at 23° C. for 30 min. The plates were then read using an EnVision-Alpha Reader (model #2104 Perkin Elmer; Waltham, Mass.).
Data from both assays was analyzed using Genedata (Basel, Switzerland). Data files were imported to Genedata and assay conditions were specified. A unique Analysis ID was created and the data files analysed to measure dose-dependent inhibition of H3K27me3 mark and cell viability respectively. Readout of DMSO wells were used to normalize the data. Resulting curves were fitted using Smart fit application (Genedata; Basel, Switzerland). The data was checked for quality, validated and integrated in excel format using Stardrop (Optibruim, Cambridge, UK).
EC50 values are reported as follows: “A” indicates an EC50 value of less than 10 nM; “B” indicates an EC50 value of 10 nM to 100 nM; “C” indicates an EC50 value of greater than 100 nM; and “ND” is not determined.

[3] = EZH2 (IC50), 30 pM PRC2 containing wt EZH2; 3-5 h pre-incubation
[4] = read-out: EZH2 (IC50); 30 pM PRC2 containing wt EZH2; 3-5 h pre-incubation
[5] = 30 pM PRC2 containing wt EZH2; 3-5 h pre-incubation; read-out: EZH2 (IC50)

PRC2 containing wt EZH2, sequence (Q15910 whole entry): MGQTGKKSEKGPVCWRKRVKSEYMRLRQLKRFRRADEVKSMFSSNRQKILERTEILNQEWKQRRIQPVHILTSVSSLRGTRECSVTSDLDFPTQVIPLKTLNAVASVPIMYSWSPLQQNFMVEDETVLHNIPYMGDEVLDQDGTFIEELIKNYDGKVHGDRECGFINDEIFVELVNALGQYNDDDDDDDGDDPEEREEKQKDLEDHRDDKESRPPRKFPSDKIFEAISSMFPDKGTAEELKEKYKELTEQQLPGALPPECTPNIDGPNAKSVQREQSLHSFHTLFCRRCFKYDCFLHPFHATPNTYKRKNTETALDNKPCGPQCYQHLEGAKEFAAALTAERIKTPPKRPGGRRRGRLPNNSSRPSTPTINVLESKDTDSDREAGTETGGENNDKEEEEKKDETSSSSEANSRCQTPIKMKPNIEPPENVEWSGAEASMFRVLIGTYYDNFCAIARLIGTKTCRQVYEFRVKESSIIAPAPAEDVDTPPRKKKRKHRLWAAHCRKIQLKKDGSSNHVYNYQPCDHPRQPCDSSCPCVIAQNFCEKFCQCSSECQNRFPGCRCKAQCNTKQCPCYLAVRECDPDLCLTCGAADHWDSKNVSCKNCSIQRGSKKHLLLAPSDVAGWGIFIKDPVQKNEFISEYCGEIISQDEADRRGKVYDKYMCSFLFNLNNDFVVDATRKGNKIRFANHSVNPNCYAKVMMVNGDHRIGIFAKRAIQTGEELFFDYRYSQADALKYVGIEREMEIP
PRC2 containing wt EZH2, sequence (O75530 whole entry partner): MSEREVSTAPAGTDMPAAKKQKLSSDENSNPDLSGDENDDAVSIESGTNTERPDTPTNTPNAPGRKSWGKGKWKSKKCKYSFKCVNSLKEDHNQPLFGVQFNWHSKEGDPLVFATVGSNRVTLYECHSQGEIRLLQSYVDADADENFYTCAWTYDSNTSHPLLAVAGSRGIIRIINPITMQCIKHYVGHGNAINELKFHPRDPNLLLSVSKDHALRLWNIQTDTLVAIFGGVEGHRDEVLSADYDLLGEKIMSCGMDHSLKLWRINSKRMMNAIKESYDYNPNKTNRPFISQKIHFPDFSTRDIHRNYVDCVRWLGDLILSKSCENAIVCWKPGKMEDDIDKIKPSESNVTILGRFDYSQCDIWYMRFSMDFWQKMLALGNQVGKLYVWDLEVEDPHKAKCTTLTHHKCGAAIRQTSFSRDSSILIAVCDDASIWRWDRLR
PRC2 containing wt EZH2, sequence (Q15022 whole entry partner): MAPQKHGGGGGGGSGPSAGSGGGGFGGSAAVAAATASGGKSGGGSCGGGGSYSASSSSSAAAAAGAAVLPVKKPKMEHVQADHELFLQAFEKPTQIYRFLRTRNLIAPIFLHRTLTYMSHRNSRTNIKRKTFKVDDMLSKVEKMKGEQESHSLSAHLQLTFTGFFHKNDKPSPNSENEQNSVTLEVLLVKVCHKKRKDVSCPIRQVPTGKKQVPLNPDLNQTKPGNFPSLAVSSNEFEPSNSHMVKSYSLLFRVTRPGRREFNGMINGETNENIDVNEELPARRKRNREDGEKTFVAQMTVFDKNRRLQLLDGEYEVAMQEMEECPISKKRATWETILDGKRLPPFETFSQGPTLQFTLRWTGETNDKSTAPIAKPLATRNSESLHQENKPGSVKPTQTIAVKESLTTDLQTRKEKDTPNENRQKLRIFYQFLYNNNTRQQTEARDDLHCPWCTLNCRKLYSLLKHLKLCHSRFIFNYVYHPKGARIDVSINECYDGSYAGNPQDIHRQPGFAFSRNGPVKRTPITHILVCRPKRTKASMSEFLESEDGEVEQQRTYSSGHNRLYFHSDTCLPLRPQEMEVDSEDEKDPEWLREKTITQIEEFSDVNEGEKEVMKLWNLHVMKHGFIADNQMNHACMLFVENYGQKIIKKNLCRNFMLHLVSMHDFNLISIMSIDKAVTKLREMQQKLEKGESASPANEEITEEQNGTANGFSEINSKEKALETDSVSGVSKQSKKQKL
PRC2 containing wt EZH2, sequence (Q09028 whole entry partner): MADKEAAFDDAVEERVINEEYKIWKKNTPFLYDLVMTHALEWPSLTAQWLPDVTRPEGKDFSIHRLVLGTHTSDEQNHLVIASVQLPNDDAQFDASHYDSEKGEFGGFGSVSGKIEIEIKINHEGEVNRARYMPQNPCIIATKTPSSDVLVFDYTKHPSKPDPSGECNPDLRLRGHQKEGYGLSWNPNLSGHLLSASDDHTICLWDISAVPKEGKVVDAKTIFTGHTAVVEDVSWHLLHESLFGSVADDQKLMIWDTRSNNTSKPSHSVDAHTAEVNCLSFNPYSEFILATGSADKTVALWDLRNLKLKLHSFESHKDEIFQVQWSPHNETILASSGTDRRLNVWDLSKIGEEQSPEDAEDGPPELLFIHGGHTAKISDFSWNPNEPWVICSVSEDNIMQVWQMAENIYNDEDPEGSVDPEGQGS
PRC2 containing wt EZH2, sequence (Q6ZN18 whole entry partner): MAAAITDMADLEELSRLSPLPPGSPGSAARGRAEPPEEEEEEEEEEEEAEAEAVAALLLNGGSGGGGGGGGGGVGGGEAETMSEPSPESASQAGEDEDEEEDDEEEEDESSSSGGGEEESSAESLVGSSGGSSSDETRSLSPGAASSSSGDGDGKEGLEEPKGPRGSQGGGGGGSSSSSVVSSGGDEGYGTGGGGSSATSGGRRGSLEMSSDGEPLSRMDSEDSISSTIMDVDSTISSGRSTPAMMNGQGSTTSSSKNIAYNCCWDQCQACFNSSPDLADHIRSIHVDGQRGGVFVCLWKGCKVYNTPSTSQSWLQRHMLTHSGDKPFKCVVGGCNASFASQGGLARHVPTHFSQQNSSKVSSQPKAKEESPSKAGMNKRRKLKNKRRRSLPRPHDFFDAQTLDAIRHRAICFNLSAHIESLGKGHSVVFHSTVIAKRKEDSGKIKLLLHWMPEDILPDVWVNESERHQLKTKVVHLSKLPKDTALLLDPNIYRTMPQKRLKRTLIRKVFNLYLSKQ

SMILES	IC50 [1, 3] [nM]	EC50 ([2]; Homo sapiens, HeLa, 72 h) [nM]	IC50 [1, 4] [nM]	EC50 [2] [nM]	IC50 [1, 5] [nM]
CSc1cc(C)[nH]c(=O)c1CNC(=O)c1c(C)n([C@H](C)C2CCN(C3CC(F)C3)CC2)c2ccccc12 (single isomer, unassigned) [64 (isomer 1)]	< 0.5	10 to 100			
CSc1cc(C)[nH]c(=O)c1CNC(=O)c1c(C)n([C@H](C)C2CCN(C3CC(F)C3)CC2)c2ccccc12 (single isomer, unassigned) [64 (isomer 2)]			< 0.5	10 to 100	
COCCOC1CCC([C@@H](C)n2c(C)c(C(=O)NCc3c(SC)cc(C)[nH]c3=O)c3ccccc32)CC1 (single isomer, unassigned) [67 (isomer 1)]		10 to 100	< 0.5		
COCCOC1CCC([C@@H](C)n2c(C)c(C(=O)NCc3c(SC)cc(C)[nH]c3=O)c3ccccc32)CC1 (single isomer, unassigned) [67 (isomer 2)]	< 0.5			< 10	
CSc1cc(C)[nH]c(=O)c1CNC(=O)c1c(C)n([C@H](C)[C@H]2CCN(C3CC3)CC2(F)F)c2ncccc12 (single isomer, unassigned) [70 (isomer 1)]	< 0.5	< 10			
CSc1cc(C)[nH]c(=O)c1CNC(=O)c1c(C)n([C@H](C)[C@@H]2CCN(C3CC3)CC2(F)F)c2ncccc12 (single isomer, unassigned) [70 (isomer 2)]	0.5 to 5	> 100			
CSc1cc(C)[nH]c(=O)c1CNC(=O)c1c(C)n([C@H](C)C2CCC(N3CCOCC3)CC2)c2ccccc12 (single isomer, unassigned) [75 (isomer 1)]	< 0.5	10 to 100			
CSc1cc(C)[nH]c(=O)c1CNC(=O)c1c(C)n([C@H](C)C2CCC(N3CCOCC3)CC2)c2ccccc12 (single isomer, unassigned) [75 (isomer 2)]			< 0.5	10 to 100	
COC1CN(C2CCC([C@@H](C)n3c(C)c(C(=O)NCc4c(SC)cc(C)[nH]c4=O)c4cccnc43)CC2)C1 (single isomer, unassigned) [76 (isomer 1)]	< 0.5			< 10	
COC1CN(C2CCC([C@@H](C)n3c(C)c(C(=O)NCc4c(SC)cc(C)[nH]c4=O)c4cccnc43)CC2)C1 (single isomer, unassigned) [76 (isomer 2)]	0.5 to 5			> 100	
CSc1cc(C)[nH]c(=O)c1CNC(=O)c1c(C)n([C@H](C)C2OCC(N3CC(C)(C)C3)CO2)c2ccccc12 (single isomer, unassigned) [78 (isomer 1)]	< 0.5			10 to 100	
CSc1cc(C)[nH]c(=O)c1CNC(=O)c1c(C)n([C@H](C)C2OCC(N3CC(C)(C)C3)CO2)c2ccccc12 (single isomer, unassigned) [78 (isomer 2)]	> 5			> 100	
CSc1cc(C)[nH]c(=O)c1CNC(=O)c1c(C)n([C@H](C)C2CCC(N3CC[C@@H](F)C3)CC2)c2ccccc12 (single isomer, unassigned) [79 (isomer 1)]	< 0.5	< 10			
CSc1cc(C)[nH]c(=O)c1CNC(=O)c1c(C)n([C@H](C)C2CCC(N3CC[C@@H](F)C3)CC2)c2ccccc12 (single isomer, unassigned) [79 (isomer 2)]			< 0.5	10 to 100	
CSc1cc(C)[nH]c(=O)c1CNC(=O)c1c(C)n([C@H](C)C2CCC(N3CC(F)C3)CC2)c2ncc(F)cc12 (single isomer, unassigned) [84 (isomer 1)]	< 0.5	< 10			
CSc1cc(C)[nH]c(=O)c1CNC(=O)c1c(C)n([C@H](C)C2CCC(N3CC(F)C3)CC2)c2ncc(F)cc12 (single isomer, unassigned) [84 (isomer 2)]			< 0.5	10 to 100	
CSc1cc(C)[nH]c(=O)c1CNC(=O)c1c(C)n([C@H](C)C2OCC(N3CC(F)(F)C3)CO2)c2ccccc12 (single isomer, unassigned) [85 (isomer 1)]	< 0.5			10 to 100	
CSc1cc(C)[nH]c(=O)c1CNC(=O)c1c(C)n([C@H](C)C2OCC(N3CC(F)(F)C3)CO2)c2ccccc12 (single isomer, unassigned) [85 (isomer 2)]	0.5 to 5			> 100	
COC1(C)CN(C2CCC([C@@H](C)n3c(C)c(C(=O)NCc4c(SC)cc(C)[nH]c4=O)c4ccccc43)CC2)C1 (single isomer, unassigned) [90 (isomer 1)]				10 to 100	< 0.5
COC1(C)CN(C2CCC([C@@H](C)n3c(C)c(C(=O)NCc4c(SC)cc(C)[nH]c4=O)c4ccccc43)CC2)C1 (single isomer, unassigned) [90 (isomer 2)]				> 100	< 0.5
CCOC1CN(C2CCC([C@@H](C)n3c(C)c(C(=O)NCc4c(SC)cc(C)[nH]c4=O)c4cccnc43)CC2)C1 (single isomer, unassigned) [91 (isomer 1)]		< 10			< 0.5
CCOC1CN(C2CCC([C@@H](C)n3c(C)c(C(=O)NCc4c(SC)cc(C)[nH]c4=O)c4cccnc43)CC2)C1 (single isomer, unassigned) [91 (isomer 2)]				10 to 100	< 0.5
COC1CN(C2CCC([C@@H](C)n3c(C)c(C(=O)NCc4c(SC)cc(C)[nH]c4=O)c4cc(F)cnc43)CC2)C1 (single isomer, unassigned) [94 (isomer 1)]				< 10	< 0.5
COC1CN(C2CCC([C@@H](C)n3c(C)c(C(=O)NCc4c(SC)cc(C)[nH]c4=O)c4cc(F)cnc43)CC2)C1 (single isomer, unassigned) [94 (isomer 2)]				> 100	0.5 to 5
CSc1cc(C)[nH]c(=O)c1CNC(=O)c1c(C)n([C@H](C)C2CCC(N3CC(OC4CC4)C3)CC2)c2ncncc12 (single isomer, unassigned) [102 (isomer 1)]		< 10			< 0.5
CSc1cc(C)[nH]c(=O)c1CNC(=O)c1c(C)n([C@H](C)C2CCC(N3CC(OC4CC4)C3)CC2)c2ncncc12 (single isomer, unassigned) [102 (isomer 2)]				10 to 100	< 0.5
CO[C@@H]1CN(C2CCC([C@@H](C)n3c(C)c(C(=O)NCc4c(SC)cc(C)[nH]c4=O)c4cccnc43)CC2)C[C@H]1F (single isomer, unassigned) [104 (isomer 1)]				10 to 100	0.5 to 5
CO[C@@H]1CN(C2CCC([C@@H](C)n3c(C)c(C(=O)NCc4c(SC)cc(C)[nH]c4=O)c4cccnc43)CC2)C[C@H]1F (single isomer, unassigned) [104 (isomer 2)]				> 100	0.5 to 5
COC1CN(C2CCC([C@@H](C)n3c(C)c(C(=O)NCc4c(SC)cc(C)[nH]c4=O)c4cc(Cl)cnc43)CC2)C1 (single isomer, unassigned) [106 (isomer 1)]		< 10			< 0.5

Source: US11459315B2, “Modulators of methyl modifying enzymes, compositions and uses thereof” (Constellation Pharmaceuticals, Inc., priority 2017, dated 2022)
